Measurements reported in patent US20250179047A1, “5-[7-(3,4-DIHYDRO-1H-ISOQUINOLINE-2-CARBONYL)-1,2,3,4 TETRAHYDROISOQUINOLIN-6-YL]-1H-PYRROLE-3-CARBOXAMIDE DERIVATIVES, PHARMACEUTICAL COMPOSITIONS CONTAINING THEM AND THEIR USES AS PRO-APOPTOTIC AGENTS” (LES LABORATOIRES SERVIER, priority 2022, published 2025).

Legend:
KMS12PE = test: In vitro cytotoxicity CellTiterGlo 72 h, KMS12PE; format: cell-based; conditions: Homo sapiens, KMS-12-PE, read-out: C50 nM, KMS12PE
Method: (§1) KMS-12-PE (ACC 606) were purchased from the Leibniz-Institute DSMZ (Braunschweig, Germany) and were grown at 37° C. in a humidified atmosphere with 5% CO2 in media recommended by the suppliers. Lentiviral particles containing Bcl-2 wild type (also named “Bcl2 WT”), Bcl-2 mutated on G101V (also named “Bcl2 G101V”), Bcl-2 mutated on D103Y (also named “Bcl2 D103Y”), Bcl-2 mutated on D103V (also named “Bcl2 D103V”), Bcl-2 mutated on D103E (also named “Bcl2 D103E”), Bcl-2 mutated on F104I (also named “Bcl2 F104I”), Bcl-2 mutated on F104L (also named “Bcl2 F104L”), Bcl-2 mutated on D111A (also named “Bcl2 D111A”), Bcl-2 mutated on A113G (also named “Bcl2 A113G”), Bcl-2 mutated on R129L (also named “Bcl2 R129L”), Bcl-2 mutated on V156D (also named “Bcl2 V156D”) were cloned into pcLV-CMV-DEST-IRES-TagRFP. Lentiviral particles (1×10^6) were mixed with Polybrene at 8 μg/ml and transduced by spinoculation for 1 h at 32° C. and incubated overnight. After 8 days, TagRFP positive-cells were sorted by FACS. BCL2 expression was monitored by immunoblotting using anti-Flag and anti-BCL2 antibodies. Cells were seeded into 96-wells plates and treated with 1:3.16 serial dilution of compounds (9 different concentrations). Cell viability was assessed using CellTiterGlo reagent following treatment for 72 h. Results were normalized to the viability of cells without compounds (control wells). The C50 values were calculated using nonlinear regression algorithms in XCell software.

KMS12PE Bcl2 D103Y = test: In vitro cytotoxicity CellTiterGlo 72 h, KMS12PE Bcl2 D103Y; format: cell-based; conditions: Homo sapiens, KMS-12-PE, read-out: C50 nM, KMS12PE Bcl2 D103Y
Method: as §1

KMS12PE Bcl2 V156D = test: In vitro cytotoxicity CellTiterGlo 72 h, KMS12PE Bcl2 V156D; format: cell-based; conditions: Homo sapiens, KMS-12-PE, read-out: C50 nM, KMS12PE Bcl2 V156D
Method: as §1

BCL2 G101V [1] = biological target: BCL2 G101V (Homo sapiens, UniProt P10415, G101V); test: TR-FRET competitive binding assay, BCL2 G101V; conditions: BCL2 G101V; Ki determined from IC50; read-out: TR_FRET EKI_Bcl2 G101V
How it was run: (§2)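 Ki derived from IC50 (11-point dilution, 520/495 nm emission ratio) for displacing a fluorescein-labelled PUMA peptide (2 or 20 nM). Target was 0.5 nM E. coli-expressed Halo-tagged BCL2 (1-207) or BCLXL (2-196), terbium-labelled on Halo. Incubation 2 h at 23°C in pH 7.5 Hepes with 150 mM NaCl and 5% DMSO.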

BCL2 G101V [2] = test: TR-FRET competitive binding assay, BCL2 G101V; design: species or system human; conditions: ratio Ki BCL2 G101V / Ki BCL2 WT
How it was run: as §2

| Ki (BCL2 G101V [1]) [nM] | TR_FRET EKI G101V/WT selectivty ratio (BCL2 G101V [2]) | SMILES | IC50 (KMS12PE) [nM] | IC50 (KMS12PE Bcl2 D103Y) [nM] | IC50 (KMS12PE Bcl2 V156D) [nM] |
| --- | --- | --- | --- | --- | --- |
| 0.3 | 3.1 | Cc1c(N(C(=O)c2cc(-c3cc4c(cc3C(=O)N3Cc5ccccc5C[C@H]3C)CN(C(=O)Cc3ccc(OCCN5CCOCC5)cc3)CC4)n(C)c2C)c2ccc(O)cc2)cc(C#N)n1C [Example 21, N-(5-cyano-1,2-dimethyl-1H-pyrrol-3-yl)-N-(4-hydroxyphenyl)-1,2-dimethyl-5-{7-[(3R)-3-methyl-1,2,3,4-tetrahydroisoquinoline-2-carbonyl]-2-(2-{4-[2-(morpholin-4-yl)ethoxy]phenyl}acetyl)-1,2,3,4-tetrahydroisoquinolin-6-yl}-1H-pyrrole-3-carboxamide] | 0.24 | 2.1 | 9.77 |
| 1.2 | 1.5 | Cc1c(N(C(=O)c2cc(-c3cc4c(cc3C(=O)N3Cc5ccccc5C[C@H]3C)CN(C(=O)Cc3ccc(OCCC5CCOCC5)cc3)CC4)n(C)c2C)c2ccc(O)cc2)cc(C#N)n1C [Example 27, N-(5-cyano-1,2-dimethyl-1H-pyrrol-3-yl)-N-(4-hydroxyphenyl)-1,2-dimethyl-5-{7-[(3R)-3-methyl-1,2,3,4-tetrahydroisoquinoline-2-carbonyl]-2-(2-{4-[2-(oxan-4-yl)ethoxy]phenyl}acetyl)-1,2,3,4-tetrahydroisoquinolin-6-yl}-1H-pyrrole-3-carboxamide] | 0.19 | 1.1 | 3.84 |
| 0.2 | 5.0 | Cc1c(N(C(=O)c2cc(-c3cc4c(cc3C(=O)N3Cc5ccccc5C[C@H]3CN3CCCCC3)CN(C(=O)Cc3ccc(OCCN5CCOCC5)cc3F)CC4)n(C)c2C)c2ccc(O)cc2)cc(C#N)n1C [Example 43, N-(5-cyano-1,2-dimethylpyrrol-3-yl)-5-[2-(2-{2-fluoro-4-[2-(morpholin-4-yl)ethoxy]phenyl}acetyl)-7-{[(3S)-3-(piperidin-1-ylmethyl)-3,4-dihydro-1H-isoquinolin-2-yl]carbonyl}-3,4-dihydro-1H-isoquinolin-6-yl]-N-(4-hydroxyphenyl)-1,2-dimethylpyrrole-3-carboxamide] | 0.22 | 1.28 | 6.63 |
| 0.4 | 4.8 | Cc1c(N(C(=O)c2cc(-c3cc4c(cc3C(=O)N3Cc5ccccc5C[C@H]3C)CN(C(=O)Cc3ccc(N5CCN6CCOC[C@@H]6C5)cc3F)CC4)n(C)c2C)c2ccc(O)cc2)cc(C#N)n1C [Example 45, 5-[2-(2-{4-[(9aS)-octahydropyrazino[2,1-c][1,4]oxazin-8-yl]-2-fluorophenyl}acetyl)-7-[(3R)-3-methyl-1,2,3,4-tetrahydroisoquinoline-2-carbonyl]-1,2,3,4-tetrahydroisoquinolin-6-yl]-N-(5-cyano-1,2-dimethyl-1H-pyrrol-3-yl)-N-(4-hydroxyphenyl)-1,2-dimethyl-1H-pyrrole-3-carboxamide] | 0.32 | 0.2 | 0.96 |
| 1 | 4.5 | Cc1c(N(C(=O)c2cc(-c3cc4c(cc3C(=O)N3Cc5ccccc5C[C@H]3C)CN(C(=O)Cc3ccc(CCN5CCC(F)(F)CC5)cc3)CC4)n(C)c2C)c2ccc(O)cc2)cc(C#N)n1C [Example 51, N-(5-cyano-1,2-dimethylpyrrol-3-yl)-5-[2-(2-{4-[2-(4,4-difluoropiperidin-1-yl)ethyl]phenyl}acetyl)-7-{[(3R)-3-methyl-3,4-dihydro-1H-isoquinolin-2-yl]carbonyl}-3,4-dihydro-1H-isoquinolin-6-yl]-N-(4-hydroxyphenyl)-1,2-dimethylpyrrole-3-carboxamide] | 0.34 | 2.79 | 31.9 |
| 0.5 | 2.3 | COC[C@@H]1Cc2ccccc2CN1C(=O)c1cc2c(cc1-c1cc(C(=O)N(c3ccc(O)cc3)c3cc(C#N)n(C)c3C)c(C)n1C)CCN(C(=O)Cc1ccc(OCCC3CCOCC3)cc1F)C2 [Example 52, N-(5-cyano-1,2-dimethylpyrrol-3-yl)-5-[2-(2-{2-fluoro-4-[2-(oxan-4-yl)ethoxy]phenyl}acetyl)-7-{[(3S)-3-(methoxymethyl)-3,4-dihydro-1H-isoquinolin-2-yl]carbonyl}-3,4-dihydro-1H-isoquinolin-6-yl]-N-(4-hydroxyphenyl)-1,2-dimethylpyrrole-3-carboxamide] | 0.21 | 1.8 | 10.6 |
| 0.2 | 2.8 | Cc1c(N(C(=O)c2cc(-c3cc4c(cc3C(=O)N3Cc5ccccc5C[C@H]3C)CN(C(=O)Cc3ccc(OCCN5CCC(F)CC5)cc3)CC4)n(C)c2C)c2ccc(O)cc2)cc(C#N)n1C [Example 53, N-(5-cyano-1,2-dimethyl-1H-pyrrol-3-yl)-5-[2-(2-{4-[2-(4-fluoropiperidin-1-yl)ethoxy]phenyl}acetyl)-7-[(3R)-3-methyl-1,2,3,4-tetrahydroisoquinoline-2-carbonyl]-1,2,3,4-tetrahydroisoquinolin-6-yl]-N-(4-hydroxyphenyl)-1,2-dimethyl-1H-pyrrole-3-carboxamide] | 0.35 | 2.61 | 21.4 |
| 0.2 | 2.4 | Cc1c(N(C(=O)c2cc(-c3cc4c(cc3C(=O)N3Cc5ccccc5C[C@H]3C)CN(C(=O)Cc3ccc(OCCN5CCSCC5)cc3)CC4)n(C)c2C)c2ccc(O)cc2)cc(C#N)n1C [Example 55, N-(5-cyano-1,2-dimethyl-1H-pyrrol-3-yl)-N-(4-hydroxyphenyl)-1,2-dimethyl-5-{7-[(3R)-3-methyl-1,2,3,4-tetrahydroisoquinoline-2-carbonyl]-2-(2-{4-[2-(thiomorpholin-4-yl)ethoxy]phenyl}acetyl)-1,2,3,4-tetrahydroisoquinolin-6-yl}-1H-pyrrole-3-carboxamide] | 0.33 | 2.5 | 14.9 |
| 0.5 | 5.7 | Cc1c(N(C(=O)c2cc(-c3cc4c(cc3C(=O)N3Cc5ccccc5C[C@H]3CN3CCCCC3)CN(C(=O)Cc3ccc(OCCC5CCOCC5)cc3)CC4)n(C)c2C)c2ccc(O)cc2)cc(C#N)n1C [Example 66, N-(5-cyano-1,2-dimethylpyrrol-3-yl)-N-(4-hydroxyphenyl)-1,2-dimethyl-5-[2-(2-{4-[2-(oxan-4-yl)ethoxy]phenyl}acetyl)-7-{[(3S)-3-(piperidin-1-ylmethyl)-3,4-dihydro-1H-isoquinolin-2-yl]carbonyl}-3,4-dihydro-1H-isoquinolin-6-yl]pyrrole-3-carboxamide] | 0.2 | 1.3 | 7.65 |
| 0.3 | 5.1 | Cc1c(C(=O)N(c2ccc(O)cc2)c2cc(C#N)n(C(F)F)c2C)cc(-c2cc3c(cc2C(=O)N2Cc4ccccc4C[C@H]2CN2CCCCC2)CN(C(=O)Cc2ccc(OCCN4CCOCC4)cc2)CC3)n1C [Example 77] | 0.42 | 3.31 | 19.1 |
| 0.4 | 6.8 | Cc1c(C(=O)N(c2ccc(O)cc2)c2cc(C#N)n(C(F)F)c2C)cc(-c2cc3c(cc2C(=O)N2Cc4ccccc4C[C@H]2CN2CCCCC2)CN(C(=O)Cc2ccc(OCCN4CCOCC4)cc2F)CC3)n1C [Example 78, N-[5-cyano-1-(difluoromethyl)-2-methylpyrrol-3-yl]-5-[2-(2-{2-fluoro-4-[2-(morpholin-4-yl)ethoxy]phenyl}acetyl)-7-{[(3S)-3-(piperidin-1-ylmethyl)-3,4-dihydro-1H-isoquinolin-2-yl]carbonyl}-3,4-dihydro-1H-isoquinolin-6-yl]-N-(4-hydroxyphenyl)-1,2-dimethylpyrrole-3-carboxamide] | 0.12 | 1 | 5.88 |
| 0.4 | 4.3 | Cc1c(N(C(=O)c2cc(-c3cc4c(cc3C(=O)N3Cc5ccccc5C[C@H]3CN3CCC[C@H](C)C3)CN(C(=O)Cc3ccc(OCCN5CCOCC5)cc3F)CC4)n(C)c2C)c2ccc(O)cc2)cc(C#N)n1C [Example 107] | 0.15 | 0.97 | 5.93 |
